Assay results published in the kinase profiling compilation of Christmann-Franck et al. (2016).

How the values were obtained:
Assay in all cases: radiometric filter-binding kinase assay
TBK1 (human) = TBK1 (human) (UniProt Q9UHD2)
IKBKE (human) = IKBKE (human) (UniProt Q14164)
MAPKAPK2 (human) = MAPKAPK2 (human) (UniProt P49137)
PAK4 (human) = PAK4 (human) (UniProt O96013)
MARK1 (human) = MARK1 (human) (UniProt Q9P0L2)
[1] = system: RPS6KB1 (human), P23443 [T412E]
MAP3K11 (human) = MAP3K11 (human) (UniProt Q16584)
MKNK1 (human) = MKNK1 (human) (UniProt Q9BUB5)
CaMK1 (human) = CaMK1 (human) (UniProt Q14012)
NUAK1 (human) = NUAK1 (human) (UniProt O60285)
JAK2 JH1 JH2 (human) = JAK2 JH1 JH2 (human) (UniProt O60674)
IRAK4 (human) = IRAK4 (human) (UniProt Q9NWZ3)
NEK6 (human) = NEK6 (human) (UniProt Q9HC98)
Chain of NEK6 (human) (Q9HC98 whole entry, looked up): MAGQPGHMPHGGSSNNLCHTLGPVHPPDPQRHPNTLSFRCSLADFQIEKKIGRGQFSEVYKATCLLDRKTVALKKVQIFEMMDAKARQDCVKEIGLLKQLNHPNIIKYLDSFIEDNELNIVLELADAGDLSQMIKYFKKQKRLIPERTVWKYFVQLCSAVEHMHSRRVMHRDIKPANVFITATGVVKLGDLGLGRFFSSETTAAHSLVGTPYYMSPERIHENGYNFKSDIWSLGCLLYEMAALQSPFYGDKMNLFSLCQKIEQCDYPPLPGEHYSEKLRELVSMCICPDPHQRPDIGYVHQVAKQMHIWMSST

MAPK3 (human) = MAPK3 (human) (UniProt P27361)
MARK2 (human) = MARK2 (human) (UniProt Q7KZI7)
CSNK1D (human) = CSNK1D (human) (UniProt P48730)
Chain of CSNK1D (human) (P48730 whole entry, looked up): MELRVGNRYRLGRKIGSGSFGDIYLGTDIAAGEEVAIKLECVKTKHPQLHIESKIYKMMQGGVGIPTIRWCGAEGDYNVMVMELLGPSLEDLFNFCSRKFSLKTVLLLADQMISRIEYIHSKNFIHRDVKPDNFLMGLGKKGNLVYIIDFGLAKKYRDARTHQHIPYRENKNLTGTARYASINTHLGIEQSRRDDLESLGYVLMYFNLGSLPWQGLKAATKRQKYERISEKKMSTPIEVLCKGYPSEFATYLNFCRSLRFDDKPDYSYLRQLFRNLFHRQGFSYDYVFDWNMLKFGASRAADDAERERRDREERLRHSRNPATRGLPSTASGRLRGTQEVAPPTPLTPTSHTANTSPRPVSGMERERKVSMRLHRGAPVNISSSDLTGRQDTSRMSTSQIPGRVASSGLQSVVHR

RPS6KA1 KD1 KD2 (human) = RPS6KA1 KD1 KD2 (human) (UniProt Q15418)
NTRK1 (human) = NTRK1 (human) (UniProt P04629)
MAPK8 (human) = MAPK8 (human) (UniProt P45983)
Chain of MAPK8 (human) (P45983 whole entry, looked up): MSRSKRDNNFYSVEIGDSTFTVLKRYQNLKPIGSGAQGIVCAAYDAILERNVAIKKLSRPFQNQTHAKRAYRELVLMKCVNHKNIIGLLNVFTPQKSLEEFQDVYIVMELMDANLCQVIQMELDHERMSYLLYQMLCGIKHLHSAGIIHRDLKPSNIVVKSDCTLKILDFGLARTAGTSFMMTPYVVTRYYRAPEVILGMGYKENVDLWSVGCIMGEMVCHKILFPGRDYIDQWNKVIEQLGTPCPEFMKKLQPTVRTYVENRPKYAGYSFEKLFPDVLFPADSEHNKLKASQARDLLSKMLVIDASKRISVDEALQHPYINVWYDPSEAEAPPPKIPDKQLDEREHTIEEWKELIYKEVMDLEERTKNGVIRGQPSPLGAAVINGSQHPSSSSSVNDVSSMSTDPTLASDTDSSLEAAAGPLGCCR

[2] = system: AKT1 (human), P31749 [S473D]
STK3 (human) = STK3 (human) (UniProt Q13188)
Chain of STK3 (human) (Q13188 whole entry, looked up): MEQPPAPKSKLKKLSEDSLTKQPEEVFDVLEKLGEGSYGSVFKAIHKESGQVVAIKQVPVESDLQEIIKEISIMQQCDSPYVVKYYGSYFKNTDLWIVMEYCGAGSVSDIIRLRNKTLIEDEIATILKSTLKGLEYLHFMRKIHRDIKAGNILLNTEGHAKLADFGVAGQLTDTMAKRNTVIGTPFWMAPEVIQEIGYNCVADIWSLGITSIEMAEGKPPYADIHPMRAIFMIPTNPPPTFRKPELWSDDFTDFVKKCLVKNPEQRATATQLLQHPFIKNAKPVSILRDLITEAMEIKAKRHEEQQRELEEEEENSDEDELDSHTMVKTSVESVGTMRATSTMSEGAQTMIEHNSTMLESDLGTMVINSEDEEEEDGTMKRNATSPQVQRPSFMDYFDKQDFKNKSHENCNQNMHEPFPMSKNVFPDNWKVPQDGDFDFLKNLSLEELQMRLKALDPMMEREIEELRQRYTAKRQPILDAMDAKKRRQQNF

MAPK9 (human) = MAPK9 (human) (UniProt P45984); settings: compound 50.0 µM
PIM1 (human) = PIM1 (human) (UniProt P11309)
Chain of PIM1 (human) (P11309 whole entry, looked up): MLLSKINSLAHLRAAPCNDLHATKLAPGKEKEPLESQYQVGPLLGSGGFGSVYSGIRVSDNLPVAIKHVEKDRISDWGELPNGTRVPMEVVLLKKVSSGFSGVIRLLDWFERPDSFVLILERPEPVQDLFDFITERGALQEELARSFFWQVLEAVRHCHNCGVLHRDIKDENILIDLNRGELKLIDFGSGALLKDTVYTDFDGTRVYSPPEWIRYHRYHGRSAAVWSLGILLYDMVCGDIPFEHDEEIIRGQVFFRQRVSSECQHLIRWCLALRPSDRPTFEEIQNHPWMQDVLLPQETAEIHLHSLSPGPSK

IKBKB (human) = IKBKB (human) (UniProt O14920)
Chain of IKBKB (human) (O14920 whole entry, looked up): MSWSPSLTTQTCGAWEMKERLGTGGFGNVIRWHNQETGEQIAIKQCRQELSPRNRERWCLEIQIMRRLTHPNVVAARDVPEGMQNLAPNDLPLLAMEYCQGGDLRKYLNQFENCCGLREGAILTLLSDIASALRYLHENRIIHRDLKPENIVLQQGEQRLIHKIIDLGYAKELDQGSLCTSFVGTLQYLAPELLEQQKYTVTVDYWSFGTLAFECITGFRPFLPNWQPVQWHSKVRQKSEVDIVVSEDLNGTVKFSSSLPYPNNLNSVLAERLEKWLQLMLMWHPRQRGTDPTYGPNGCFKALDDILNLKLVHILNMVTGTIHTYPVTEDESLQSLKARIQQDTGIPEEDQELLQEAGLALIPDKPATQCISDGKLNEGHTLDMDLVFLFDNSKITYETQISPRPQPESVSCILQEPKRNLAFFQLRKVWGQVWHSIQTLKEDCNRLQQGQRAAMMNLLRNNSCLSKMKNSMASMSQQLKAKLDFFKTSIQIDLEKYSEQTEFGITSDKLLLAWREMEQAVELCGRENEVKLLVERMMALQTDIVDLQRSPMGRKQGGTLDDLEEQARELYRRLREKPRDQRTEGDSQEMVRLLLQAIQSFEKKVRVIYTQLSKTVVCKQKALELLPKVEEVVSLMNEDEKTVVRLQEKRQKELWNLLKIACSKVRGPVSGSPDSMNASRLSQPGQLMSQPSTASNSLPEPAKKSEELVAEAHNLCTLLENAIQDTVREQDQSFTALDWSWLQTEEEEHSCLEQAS

MAPK14 (human) = MAPK14 (human) (UniProt Q16539)
NEK2 (human) = NEK2 (human) (UniProt P51955)
Chain of NEK2 (human) (P51955 whole entry, looked up): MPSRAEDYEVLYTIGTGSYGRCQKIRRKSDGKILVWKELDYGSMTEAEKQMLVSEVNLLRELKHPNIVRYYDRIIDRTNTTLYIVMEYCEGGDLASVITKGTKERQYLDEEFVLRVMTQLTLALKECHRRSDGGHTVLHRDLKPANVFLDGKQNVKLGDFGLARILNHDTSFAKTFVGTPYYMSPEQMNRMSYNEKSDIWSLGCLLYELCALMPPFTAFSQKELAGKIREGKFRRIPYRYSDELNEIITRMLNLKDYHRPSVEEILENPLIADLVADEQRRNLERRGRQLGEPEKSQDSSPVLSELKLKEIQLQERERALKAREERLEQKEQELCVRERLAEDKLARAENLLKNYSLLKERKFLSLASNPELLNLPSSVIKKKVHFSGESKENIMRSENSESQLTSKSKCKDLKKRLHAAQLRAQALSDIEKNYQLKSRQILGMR

MAP2K1 (human) = MAP2K1 (human) (UniProt Q02750)
Chain of MAP2K1 (human) (Q02750 whole entry, looked up): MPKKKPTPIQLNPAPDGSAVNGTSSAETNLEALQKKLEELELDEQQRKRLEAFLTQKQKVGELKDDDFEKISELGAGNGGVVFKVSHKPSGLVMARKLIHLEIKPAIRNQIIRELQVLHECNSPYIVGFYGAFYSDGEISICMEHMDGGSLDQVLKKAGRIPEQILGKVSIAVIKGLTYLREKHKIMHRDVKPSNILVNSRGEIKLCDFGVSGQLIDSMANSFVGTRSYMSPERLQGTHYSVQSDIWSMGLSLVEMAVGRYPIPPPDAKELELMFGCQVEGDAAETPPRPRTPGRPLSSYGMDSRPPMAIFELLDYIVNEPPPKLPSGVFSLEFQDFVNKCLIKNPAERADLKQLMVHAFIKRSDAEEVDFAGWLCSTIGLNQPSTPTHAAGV

CHEK2 (human) = CHEK2 (human) (UniProt O96017)
DYRK1A (human) = DYRK1A (human) (UniProt Q13627)
TTK (human) = TTK (human) (UniProt P33981)
DYRK3 (human) = DYRK3 (human) (UniProt O43781)
EPHB2 (human) = EPHB2 (human) (UniProt P29323)
MKNK2 (human) = MKNK2 (human) (UniProt Q9HBH9)
Chain of MKNK2 (human) (Q9HBH9 whole entry, looked up): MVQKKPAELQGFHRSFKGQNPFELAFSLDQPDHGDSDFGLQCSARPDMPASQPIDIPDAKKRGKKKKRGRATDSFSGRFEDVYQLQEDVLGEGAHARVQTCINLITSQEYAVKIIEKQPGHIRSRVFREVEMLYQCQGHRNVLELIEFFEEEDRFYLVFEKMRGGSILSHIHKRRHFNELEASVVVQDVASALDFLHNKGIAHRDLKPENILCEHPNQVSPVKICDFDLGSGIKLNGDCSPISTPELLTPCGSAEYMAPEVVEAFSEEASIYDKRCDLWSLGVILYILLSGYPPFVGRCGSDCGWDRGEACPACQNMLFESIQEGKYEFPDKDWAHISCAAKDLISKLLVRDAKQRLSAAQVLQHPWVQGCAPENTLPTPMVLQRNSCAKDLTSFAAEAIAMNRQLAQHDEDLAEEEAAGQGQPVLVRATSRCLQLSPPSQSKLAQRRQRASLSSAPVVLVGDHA

MARK3 (human) = MARK3 (human) (UniProt P27448)
[3] = molecular target: STK11 CAB39 STRADA (human) (UniProt Q9Y376+Q7RTN6+Q15831)

Chain of MAPKAPK2 (human) (P49137 whole entry, looked up): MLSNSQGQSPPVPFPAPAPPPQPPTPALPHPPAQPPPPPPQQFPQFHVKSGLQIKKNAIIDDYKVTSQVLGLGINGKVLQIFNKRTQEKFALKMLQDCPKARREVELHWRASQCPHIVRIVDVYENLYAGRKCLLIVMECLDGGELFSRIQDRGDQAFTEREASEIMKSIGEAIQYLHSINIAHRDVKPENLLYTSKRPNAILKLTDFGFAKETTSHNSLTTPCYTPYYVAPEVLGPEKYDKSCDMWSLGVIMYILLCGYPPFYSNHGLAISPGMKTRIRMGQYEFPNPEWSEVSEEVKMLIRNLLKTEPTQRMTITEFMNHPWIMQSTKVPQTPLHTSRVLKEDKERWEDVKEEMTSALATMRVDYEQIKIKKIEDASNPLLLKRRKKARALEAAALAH
Chain of RPS6KB1 (human), P23443 [T412E] (P23443 whole entry T412E, looked up): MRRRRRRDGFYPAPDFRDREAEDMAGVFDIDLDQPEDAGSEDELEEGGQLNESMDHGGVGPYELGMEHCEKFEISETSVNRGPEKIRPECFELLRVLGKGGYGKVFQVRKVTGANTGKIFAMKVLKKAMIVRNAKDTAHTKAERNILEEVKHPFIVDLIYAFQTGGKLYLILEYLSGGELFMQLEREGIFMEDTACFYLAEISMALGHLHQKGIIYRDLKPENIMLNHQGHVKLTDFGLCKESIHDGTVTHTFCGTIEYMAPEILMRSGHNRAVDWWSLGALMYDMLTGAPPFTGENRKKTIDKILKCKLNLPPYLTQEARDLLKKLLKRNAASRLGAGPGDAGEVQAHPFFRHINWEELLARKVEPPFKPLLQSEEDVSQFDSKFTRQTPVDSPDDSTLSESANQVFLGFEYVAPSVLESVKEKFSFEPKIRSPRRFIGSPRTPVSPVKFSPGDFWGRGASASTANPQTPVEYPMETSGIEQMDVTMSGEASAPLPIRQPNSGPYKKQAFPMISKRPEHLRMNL

- residual activity (TBK1 (human); compound 10.0 µM): 99%
- residual activity (TBK1 (human); compound 50.0 µM): 97%
- residual activity (IKBKE (human); compound 10.0 µM): 101%
- residual activity (IKBKE (human); compound 50.0 µM): 81%
- residual activity (MAPKAPK2 (human); compound 1.0 µM): 85%
- residual activity (MAPKAPK2 (human); compound 10.0 µM): 102%
- residual activity (MAPKAPK2 (human); compound 50.0 µM): 99%
- residual activity (PAK4 (human); compound 10.0 µM): 86%
- residual activity (PAK4 (human); compound 50.0 µM): 90%
- residual activity (MARK1 (human); compound 10.0 µM): 97%
- residual activity (MARK1 (human); compound 50.0 µM): 101%
- residual activity ([1]; compound 1.0 µM): 81%
- residual activity ([1]; compound 10.0 µM): 84%
- residual activity ([1]; compound 50.0 µM): 91%
- residual activity (MAP3K11 (human); compound 10.0 µM): 104%
- residual activity (MAP3K11 (human); compound 50.0 µM): 96%
- residual activity (MKNK1 (human); compound 1.0 µM): 86%
- residual activity (MKNK1 (human); compound 10.0 µM): 112%
- residual activity (CaMK1 (human); compound 1.0 µM): 89%
- residual activity (CaMK1 (human); compound 10.0 µM): 107%
- residual activity (CaMK1 (human); compound 50.0 µM): 101%
- residual activity (NUAK1 (human); compound 10.0 µM): 88%
- residual activity (NUAK1 (human); compound 50.0 µM): 86%
- residual activity (JAK2 JH1 JH2 (human); compound 10.0 µM): 80%
- residual activity (JAK2 JH1 JH2 (human); compound 50.0 µM): 86%
- residual activity (IRAK4 (human); compound 10.0 µM): 94%
- residual activity (IRAK4 (human); compound 50.0 µM): 99%
- residual activity (NEK6 (human); compound 1.0 µM): 99%
- residual activity (NEK6 (human); compound 10.0 µM): 100%
- residual activity (NEK6 (human); compound 50.0 µM): 102%
- residual activity (MAPK3 (human); compound 10.0 µM): 88%
- residual activity (MAPK3 (human); compound 50.0 µM): 101%
- residual activity (MARK2 (human); compound 10.0 µM): 104%
- residual activity (MARK2 (human); compound 50.0 µM): 90%
- residual activity (CSNK1D (human); compound 1.0 µM): 108%
- residual activity (CSNK1D (human); compound 10.0 µM): 107%
- residual activity (CSNK1D (human); compound 50.0 µM): 90%
- residual activity (RPS6KA1 KD1 KD2 (human); compound 1.0 µM): 99%
- residual activity (RPS6KA1 KD1 KD2 (human); compound 10.0 µM): 100%
- residual activity (RPS6KA1 KD1 KD2 (human); compound 50.0 µM): 96%
- residual activity (NTRK1 (human); compound 10.0 µM): 91%
- residual activity (NTRK1 (human); compound 50.0 µM): 89%
- residual activity (MAPK8 (human); compound 1.0 µM): 86%
- residual activity (MAPK8 (human); compound 10.0 µM): 95%
- residual activity (MAPK8 (human); compound 50.0 µM): 92%
- residual activity ([2]; compound 1.0 µM): 99%
- residual activity ([2]; compound 10.0 µM): 99%
- residual activity ([2]; compound 50.0 µM): 102%
- residual activity (STK3 (human); compound 1.0 µM): 90%
- residual activity (STK3 (human); compound 10.0 µM): 88%
- residual activity (STK3 (human); compound 50.0 µM): 87%
- residual activity (MAPK9 (human)): 104%
- residual activity (PIM1 (human); compound 10.0 µM): 98%
- residual activity (PIM1 (human); compound 50.0 µM): 100%
- residual activity (IKBKB (human); compound 1.0 µM): 86%
- residual activity (IKBKB (human); compound 10.0 µM): 79%
- residual activity (IKBKB (human); compound 50.0 µM): 88%
- residual activity (MAPK14 (human); compound 1.0 µM): 82%
- residual activity (MAPK14 (human); compound 10.0 µM): 107%
- residual activity (NEK2 (human); compound 1.0 µM): 79%
- residual activity (NEK2 (human); compound 10.0 µM): 93%
- residual activity (NEK2 (human); compound 50.0 µM): 91%
- residual activity (MAP2K1 (human); compound 1.0 µM): 86%
- residual activity (MAP2K1 (human); compound 10.0 µM): 89%
- residual activity (MAP2K1 (human); compound 50.0 µM): 99%
- residual activity (CHEK2 (human); compound 1.0 µM): 83%
- residual activity (CHEK2 (human); compound 10.0 µM): 97%
- residual activity (CHEK2 (human); compound 50.0 µM): 95%
- residual activity (DYRK1A (human); compound 1.0 µM): 98%
- residual activity (DYRK1A (human); compound 50.0 µM): 89%
- residual activity (TTK (human); compound 10.0 µM): 101%
- residual activity (TTK (human); compound 50.0 µM): 82%
- residual activity (DYRK3 (human); compound 10.0 µM): 87%
- residual activity (DYRK3 (human); compound 50.0 µM): 91%
- residual activity (EPHB2 (human); compound 10.0 µM): 106%
- residual activity (EPHB2 (human); compound 50.0 µM): 126%
- residual activity (MKNK2 (human); compound 1.0 µM): 90%
- residual activity (MKNK2 (human); compound 10.0 µM): 106%
- residual activity (MKNK2 (human); compound 50.0 µM): 126%
- residual activity (MARK3 (human); compound 1.0 µM): 100%
- residual activity (MARK3 (human); compound 10.0 µM): 108%
- residual activity ([3]; compound 10.0 µM): 84%
- residual activity ([3]; compound 50.0 µM): 85%
Compound: CCCC(CCC)C(=O)O
